Source: ChEMBL document CHEMBL3120117, “Synthesis and antitumor activity evaluation of chrysin derivatives” (Eur J Med Chem, 2014)

Experiments:
[1] = tested on: H22; test: Cytotoxicity against mouse H22 cells assessed as growth inhibition by MTT assay; type: functional, cell-based
[2] = tested on: H22; test: Cell cycle arrest in mouse H22 cells assessed as accumulation at G1 phase at 1 mmol/l after 24 hrs by propidium iodide staining based flow cytometry (reference value: 14.38 +/-0.54%); type: functional
[3] = tested on: H22; test: Cell cycle arrest in mouse H22 cells assessed as accumulation at G2/M phase at 1 mmol/l after 24 hrs by propidium iodide staining based flow cytometry (reference value: 15.42 +/-0.33%); type: functional
[4] = tested on: H22; test: Cell cycle arrest in mouse H22 cells assessed as accumulation at S phase at 1 mmol/l after 24 hrs by propidium iodide staining based flow cytometry (reference value: 70.21 +/-0.38%); type: functional
[5] = tested on: H22; test: Cytotoxicity against mouse H22 cells assessed as growth inhibition by MTT assay relative to chrysin; type: functional

Compound | IC50 [1] [mM] | Activity [2] [%] | Activity [3] [%] | Activity [4] [%] | growth inhibition (GI) [5] [%]
CCOC(=O)COc1cc(OC(=O)c2ccccc2)cc2oc(-c3ccccc3)cc(=O)c12 | 3.22 | – | – | – | –
CC(=O)Oc1cc(OC(C)=O)c2c(=O)cc(-c3ccccc3)oc2c1 [CHRYSIN DIACETATE] | 0.141 | 6.22 | 36.34 | 57.44 | 91.56
O=C(Oc1cc(OC(=O)c2ccccc2)c2c(=O)cc(-c3ccccc3)oc2c1)c1ccccc1 | 3.66 | – | – | – | –
O=C(O)COc1cc(OCC(=O)O)c2c(=O)cc(-c3ccccc3)oc2c1 [FLAVODIC ACID] | 3.12 | – | – | – | –
O=C(O)COc1cc(O)cc2oc(-c3ccccc3)cc(=O)c12 | 2.47 | – | – | – | –
O=C(Oc1cc(O)c2c(=O)cc(-c3ccccc3)oc2c1)c1ccccc1 | 1.71 | – | – | – | –
CCOC(=O)COc1cc(OCC(=O)OCC)c2c(=O)cc(-c3ccccc3)oc2c1 | 4.03 | – | – | – | –
CC(=O)Oc1cc(O)c2c(=O)cc(-c3ccccc3)oc2c1 | 4.29 | – | – | – | –
O=c1cc(-c2ccccc2)oc2cc(O)cc(O)c12 [CHRYSIN] | 1.67 | 12.97 | 17.13 | 69.91 | –
